This passage reports inhibition, IC50 and Ki results from publication PMC7316994, “In Vitro Pharmacological Profile of a New Small Molecule Bradykinin B2 Receptor Antagonist” (Frontiers in Pharmacology, 2020).

In assay [1] the target is T1, Neurokinin NK3 (Homo sapiens, UniProt P29371).
T1 construct: host or cells: CHO cells
T1 sequence (P29371 1-465): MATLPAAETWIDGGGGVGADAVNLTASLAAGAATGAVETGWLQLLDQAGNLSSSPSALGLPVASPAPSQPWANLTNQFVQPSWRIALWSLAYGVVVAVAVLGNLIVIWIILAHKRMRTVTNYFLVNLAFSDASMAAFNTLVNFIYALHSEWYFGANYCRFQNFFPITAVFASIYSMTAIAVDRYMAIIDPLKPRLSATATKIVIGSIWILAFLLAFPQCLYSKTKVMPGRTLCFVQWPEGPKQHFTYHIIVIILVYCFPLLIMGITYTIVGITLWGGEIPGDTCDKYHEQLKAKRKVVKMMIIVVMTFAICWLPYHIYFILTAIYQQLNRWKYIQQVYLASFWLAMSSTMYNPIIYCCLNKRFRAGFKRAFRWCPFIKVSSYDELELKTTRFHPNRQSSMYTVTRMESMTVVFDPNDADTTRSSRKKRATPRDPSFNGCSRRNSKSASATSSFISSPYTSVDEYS
Description: radioligand binding (Table S2). Conditions: [3H] SR 142801, Human recombinant CHO cells.

Assay [2] deals with Adrenergic β2 (Homo sapiens, UniProt P07550). Description: radioligand binding (Table S2). Conditions: read-out: % Inhibition @ 10 µM.
Assay [3] addresses T2, Galanin GAL2 (Homo sapiens, UniProt O43603).
T2 construct: host or cells: CHO cells
Description: radioligand binding (Table S2). Particulars: [125I] Galanin, Human recombinant CHO cells.

The target in assay [4] is T3, B2 receptor (Homo sapiens, UniProt P30411).
T3 sequence (P30411 1-391): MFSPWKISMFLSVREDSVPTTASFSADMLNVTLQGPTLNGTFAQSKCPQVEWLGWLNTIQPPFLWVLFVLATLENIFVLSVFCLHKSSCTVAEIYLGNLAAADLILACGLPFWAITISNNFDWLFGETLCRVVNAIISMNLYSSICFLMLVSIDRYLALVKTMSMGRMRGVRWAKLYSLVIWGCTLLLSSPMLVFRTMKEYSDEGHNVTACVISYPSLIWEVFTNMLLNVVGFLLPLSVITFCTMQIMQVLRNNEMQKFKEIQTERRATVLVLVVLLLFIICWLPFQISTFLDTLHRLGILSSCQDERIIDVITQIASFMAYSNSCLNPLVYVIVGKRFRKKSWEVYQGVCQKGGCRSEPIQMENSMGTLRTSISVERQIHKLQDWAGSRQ
Put plainly: [^3H]BK competition binding assay, CHO cell membranes. More on the design: host or cells: CHO cells. Particulars: competition with 0.3 nM [^3H]BK.

In assay [5] the target is Galanin GAL1 (Homo sapiens, UniProt P47211). Put plainly: radioligand binding (Table S2). Conditions: [125I] Galanin, Human recombinant HEK-293 cells.
Assay [6] has as its target Muscarinic M5 (Homo sapiens, UniProt P08912). Put plainly: radioligand binding (Table S2). Particulars: read-out: % Inhibition @ 10 µM.

Read-outs that look alike come from different tables or passages of the source.

Muscarinic M5, sequence (P08912 whole entry): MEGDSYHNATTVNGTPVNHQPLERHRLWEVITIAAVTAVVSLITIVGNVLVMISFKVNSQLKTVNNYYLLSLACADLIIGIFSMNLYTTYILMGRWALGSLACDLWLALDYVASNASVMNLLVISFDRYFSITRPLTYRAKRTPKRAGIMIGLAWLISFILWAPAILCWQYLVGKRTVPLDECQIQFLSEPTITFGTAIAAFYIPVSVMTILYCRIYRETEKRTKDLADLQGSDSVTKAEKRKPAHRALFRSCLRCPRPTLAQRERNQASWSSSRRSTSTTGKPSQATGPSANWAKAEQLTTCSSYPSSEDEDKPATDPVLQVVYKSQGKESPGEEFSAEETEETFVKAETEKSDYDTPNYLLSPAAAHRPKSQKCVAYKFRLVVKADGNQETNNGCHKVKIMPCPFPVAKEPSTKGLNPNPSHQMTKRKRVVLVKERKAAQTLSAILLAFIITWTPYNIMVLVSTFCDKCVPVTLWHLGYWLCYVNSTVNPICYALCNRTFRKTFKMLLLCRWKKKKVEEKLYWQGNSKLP
T2 sequence (O43603 whole entry): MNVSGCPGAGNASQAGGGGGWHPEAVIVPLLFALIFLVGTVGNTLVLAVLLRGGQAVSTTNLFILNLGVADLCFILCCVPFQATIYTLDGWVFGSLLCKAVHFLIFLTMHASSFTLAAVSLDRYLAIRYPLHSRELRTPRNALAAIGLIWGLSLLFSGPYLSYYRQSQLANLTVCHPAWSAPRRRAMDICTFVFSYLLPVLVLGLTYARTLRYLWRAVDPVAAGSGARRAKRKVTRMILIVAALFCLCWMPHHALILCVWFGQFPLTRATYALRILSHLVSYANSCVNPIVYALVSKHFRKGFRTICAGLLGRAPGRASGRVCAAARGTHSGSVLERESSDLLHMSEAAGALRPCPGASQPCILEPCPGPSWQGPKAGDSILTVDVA
Adrenergic β2, sequence (P07550 whole entry): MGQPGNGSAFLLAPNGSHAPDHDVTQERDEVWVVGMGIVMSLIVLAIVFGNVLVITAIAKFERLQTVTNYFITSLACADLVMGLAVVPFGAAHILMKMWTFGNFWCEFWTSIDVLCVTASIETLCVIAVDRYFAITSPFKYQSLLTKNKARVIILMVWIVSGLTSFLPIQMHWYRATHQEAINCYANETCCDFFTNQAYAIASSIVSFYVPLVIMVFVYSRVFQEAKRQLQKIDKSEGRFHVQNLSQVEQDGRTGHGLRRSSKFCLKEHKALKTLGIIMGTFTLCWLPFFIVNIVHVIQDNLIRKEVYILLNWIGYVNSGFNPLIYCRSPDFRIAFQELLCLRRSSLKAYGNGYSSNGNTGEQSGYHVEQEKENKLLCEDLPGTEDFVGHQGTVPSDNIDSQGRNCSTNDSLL
Galanin GAL1, sequence (P47211 whole entry): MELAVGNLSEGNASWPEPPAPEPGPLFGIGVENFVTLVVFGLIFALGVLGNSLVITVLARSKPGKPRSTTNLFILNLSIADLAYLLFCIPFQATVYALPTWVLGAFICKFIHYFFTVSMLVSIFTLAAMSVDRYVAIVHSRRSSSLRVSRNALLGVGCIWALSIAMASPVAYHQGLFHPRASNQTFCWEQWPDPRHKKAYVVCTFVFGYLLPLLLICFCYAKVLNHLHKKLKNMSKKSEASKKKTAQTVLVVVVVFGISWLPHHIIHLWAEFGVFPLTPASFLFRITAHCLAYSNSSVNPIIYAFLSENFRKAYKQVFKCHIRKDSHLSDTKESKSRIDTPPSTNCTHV

For the molecule `Cc1cc(-c2ncnn2C)c2cccc(OCc3c(Cl)cc(F)cc3[C@H](C)NC(=O)COC(F)F)c2n1` [Compound 3, (S)-N-(1-(3-chloro-5-fluoro-2-((2-methyl-4-(1-methyl-1H-1,2,4-triazol-5-yl)quinolin-8-yloxy)methyl)phenyl)ethyl)-2-(difluoromethoxy)acetamide], the inhibition at 10 µM in assay [1] amounted to 6.1%; in assay [2], 3%; in assay [3], 6.2%; in assay [5], 22.4%; in assay [6] it was 5.1%. For the same molecule, the IC50 turned out to be 0.97 nM in assay [4] (arithmetic mean, read-out: IC50 (nM) Mean) and 0.97 nM in assay [4] (geometric mean, read-out: IC50 (nM) Geometric mean). The inhibition constant (Ki) was determined as 0.5 nM in assay [4] (arithmetic mean, read-out: Ki (nM) Mean) and 0.5 nM in assay [4] (geometric mean, read-out: Ki (nM) Geometric mean).
